No end group written: not given here.
Assays:
HIV-1IIIB = experiment: HIV-1 antiviral assay in CEM-SS cells (MTS readout of virus-induced cell killing); type: cell-based
HCMV strain AD169 = experiment: HCMV plaque formation assay in MRC-5 cells; conditions: for inhibition of HCMV plaque formation as compared to the virus control: 10 micrograms per ml, 7-10 days
[1] = system: hepatitis B virus (HBV) ayw strain; experiment: HBV assay in HepG2-2.2.15 cells (secreted HBV DNA by TaqMan PCR); type: cell-based; conditions: 10 micrograms per ml, six days, HBV DNA in supernatant
[2] = system: spleen cells of Ovalbumin-immunized Balb/c mice; experiment: Th1/Th2 cytokine profiling assay (Ovalbumin-restimulated spleen cells, CBA kit); conditions: 10 micrograms per ml; Ovalbumin restimulation, 72 hours
Source text: The Balb/c mice (originated in 1923, it is a popular strain and is used in many different research disciplines. Also classified as an inbred from the production of 20 or more successive brother-sister matings, the Balb/c mouse is albino and small in size) were immunized on Days 1, 15, and 29 with Ovalbumin (Ovalbumin is the main protein found in egg white, commonly used to stimulate an immunological reaction in test animals) in PBS (5 micrograms/injection). On day 50, spleens of the mice were harvested (3 weeks after last boost with Ovalbumin). […] Thereafter, additional Ovalbumin was added to the cells at 10 micrograms/ml for in vitro restimulation of the cells. 72 hours later, cell supernatants were harvested and assayed using the Becton Dickinson Mouse Th1/Th2 Cytokine CBA Kit.

[3] = system: Primary Human endothelial cells (HUVEC); experiment: Endothelial cell migration assay; conditions: 10 micrograms per ml, 22 hours, combination peptide 1: peptide 2 0.95 mole: 1.05 mole
Procedure: Primary Human endothelial cells (HUVEC) were seeded in insert chambers with 3 micrometer pore size of multi-transwell plate for 6 hours at 37° C. in Endothelial Cell Basal Medium (EBM) supplemented with 0.1% bovine serum albumin. Thereafter, designated concentration of testing peptides—10 micrograms per ml—was added in duplicate wells. The endothelia were allowed to migrate for 22 hours at 37° C., then, migrated cells were fixed and stained with Hoechst 33342 dye. Images of 3 fields per insert were taken and the number of migrated cells per field were quantified using the ImageProPlus software. Data were analyzed for the average number of the migrated cells and standard deviation of six data points for each treatment condition. […] Statistic p values were computed using the Student's t-test.

HUVEC = experiment: Endothelial tube formation assay; conditions: 10 micrograms per ml, 20 hours, combination peptide 1: peptide 2 0.95 mole: 1.05 mole
Procedure: The endothelial tube formation assay is based on the ability of endothelial cells to form three-dimensional capillary-like tubular structures when cultured on a gel of basement membrane extract. […] Pre-labeled HUVEC with Calcein AM were seeded in a 96-well culture plate coated with extracellular metrix (Chemicon international Cat. ECM625) and treated with test peptides—10 micrograms per ml—in full growth medium. Positive control was vehicle only. The endothelial cells were allowed to form tubes foe 20 hours and were then examined under an inverted fluorescent microscope. Duplicate wells for each treatment were photographed and quantitatevily analyzed for an average tubule length using image analysis software ImageProPlus. Raw data were expressed as average tubule lenghs in pixels±standard deviation. Statistic p values were computed using the Student's t-test.

Compound	antiviral activity of positive control compounds (HIV-1) (HIV-1IIIB)	antiviral activity of positive control compound (HCMV) (HCMV strain AD169; positive control, HCMV AD169)	inhibition of HBV replication as compared to the virus control infection [1] [%]	inhibition of HCMV plaque formation as compared to the virus control (HCMV strain AD169)	IFNγ spleen cells; TH1 response (% of control) [2]	IL-2 spleen cells (% of control) [2]	IL-4 spleen cells; TH2 response (% of control) [2]	IL-5 spleen cells; TH2 response (% of control) [2]	TNF-a spleen cells; TH1 response (% of control) [2]	inhibition of the migration of human endothelial cells [3]	inhibition of the tube formation endothelial cells (HUVEC)
Cc1cn([C@H]2C[C@H](N=[N+]=[N-])[C@@H](CO)O2)c(=O)[nH]c1=O [AZT]	expected levels of antiviral activity	–	–	–	–	–	–	–	–	–	–
Nc1nc(O)c2ncn(COC(CO)CO)c2n1 [Ganciclovir, reference compound]	–	expected levels of antiviral activity	–	–	–	–	–	–	–	–	–
CC(C)(C)NC(=O)[C@@H]1CN(Cc2cccnc2)CCN1C[C@@H](O)C[C@@H](Cc1ccccc1)C(=O)N[C@H]1c2ccccc2C[C@H]1O [indinavir]	expected levels of antiviral activity	–	–	–	–	–	–	–	–	–	–
Ala-Ala-Val-Ala-Leu-Leu-Pro-Ala-Val-Leu-Leu-Ala-Leu-Leu-Ala-Pro-Val-Gln-Arg-Lys-Arg-Gln-Lys-Leu-Met-Pro-OH (AAVALLPAVLLALLAPVQRKRQKLMP-OH) [Peptide 1]	–	–	40.7	did not inhibit	63.7 % of control	153.6 % of control	118.2 % of control	74.6 % of control	108.5 % of control	did not inhibit	did not inhibit
Arg-Val-Tyr-Ile-His-Pro-Phe-OH (RVYIHPF-OH) [Peptide 2]	–	–	44.1	did not inhibit	126.8 % of control	119.1 % of control	117.2 % of control	69.6 % of control	106.3 % of control	did not inhibit	3%
